The results in this text go back to patent publication US9719110B2, “Method of increasing production of amorpha-4,11-diene and method of increasing production of natural rubber” (SUMITOMO RUBBER INDUSTRIES, LTD., priority 2014, dated 2017).

For one experiment, the system named is 35S:ADS A. thaliana. In words: amorpha-4,11-diene production in 35S:ADS A. thaliana seedlings cultured in MS liquid medium with inhibitor (GC-MS). It counts as in vivo, Arabidopsis thaliana. On the procedure:
The following experiment was performed to confirm that the attachment of the enzyme inhibitor squalestatin (squalene synthase inhibitor) had the effect of increasing production of amorpha-4,11-diene on 35S:ADS A. thaliana, which is an Arabidopsis thaliana into which had been introduced a gene encoding amorphadiene synthase (ADS).
The 35S:ADS A. thaliana is Arabidopsis thaliana in which a gene encoding ADS derived from Artemisia annua is overexpressed. It is properly managed as 433 7-5 line in Cell Technology Laboratory, Division of Advanced Science and Biotechnology, Graduate School of Engineering, Osaka University.
In order to sterilize 35S:ADS A. thaliana seeds, the seeds were immersed in a seed sterilization water (0.25% sodium hypochlorite solution, 1% SDS) for 20 minutes and then washed with sterilized water four times.
The seeds were plated on MS agar medium (Murashige and Skoog medium, including 4.4 g/L vitamins, 10 g/L sucrose, and 10 g/L agar) set to a pH of 5.8.
The plating was followed by vernalization for two or more days at 4° C. Thereafter, the seeds were cultured at 23° C. under long day conditions (16 hours light/8 hours dark) for seven days.
The resulting Arabidopsis thaliana seedlings were transferred to MS liquid media supplemented with squalestatin (SQS inhibitor) at squalestatin concentrations of 0, 1, 3, 5, 10, and 15 μmol/L, followed by further culturing for seven days with shaking at 23° C. under long day conditions (16 hours light/8 hours dark).
Amorpha-4,11-diene was extracted from the Arabidopsis thaliana plants by the following procedure. About 100 mg (wet weight) of Arabidopsis thaliana plants was placed in a mortar, to which was added about 5 mL of n-hexane. After 100 μL of a n-tetradecane solution was added as an internal standard, the mixture was subjected to grinding and extraction. The extract was once recovered, and the residue was combined with another 5 mL of fresh n-hexane, followed by grinding and extraction. The extract from the second extraction was combined with that from the first extraction. This cycle of operation was repeated twice. The resulting extract was passed through an anhydrous sodium sulfate column.
The eluate from the column was concentrated under reduced pressure to about 1 mL using a rotary evaporator, and then dried to a solid with a nitrogen blowing concentrator.
The dried solid was finally combined with 1 mL of n-hexane to prepare a sample for GC-MS analysis.
The GC-MS analysis was performed with a JMS-SUN200 mass spectrometer (JEOL) and a gas chromatograph (6890 series GC system: Agilent Technologies). […]
Instead of squalene synthase (SQS), squalene epoxidase (SQE), which is located one step downstream of SQS, was inhibited, and then the effect of increasing production of amorpha-4,11-diene was evaluated. […]

For a further experiment, the system named is Taraxacum koksaghyz. As to the kind of experiment: natural rubber production in Taraxacum koksaghyz sprayed with inhibitor solution (rubber dry weight). It counts as in vivo. On the procedure:
The following experiment was performed to confirm that the attachment of the enzyme inhibitor squalestatin (squalene synthase inhibitor) to the rubber-producing plant Taraxacum koksaghyz had the effect of increasing production of natural rubber.
Taraxacum koksaghyz seeds were vernalized for two or more days at 4° C. and then planted in soil.
After planted in soil, the seeds were grown at 25° C. under 12 h light/12 h dark conditions for five months.
Squalestatin was dissolved at a concentration of 10 μmol/L in 0.1% dimethyl sulfoxide (DMSO) to prepare a squalestatin solution. Two of the thus grown Taraxacum koksaghyz plants were each sprayed with 50 mL of the squalestatin solution once a day for four days using a spray.
As a comparative example, another two Taraxacum koksaghyz individuals were sprayed with 50 mL of a 0.1% dimethyl sulfoxide (DMSO) solution without squalestatin once a day for four days using a spray.
On day 5 after initiation of the treatment, latex was recovered from the Taraxacum koksaghyz roots and immersed in ethanol for five hours to solidify natural rubber.
The solidified natural rubber was dried at room temperature for three days. Thereafter, the dry weight was measured, and the results were compared.

Take `CN(C/C=C/C#CC(C)(C)C)Cc1cccc2ccccc12` [terbinafine]: the “amorpha-4,11-diene amount relative to treatment with the same concentration of squalestatin” value in the experiment with 35S:ADS A. thaliana (5 μmol/L) was “a tenth or less”. For the same molecule, in the experiment with 35S:ADS A. thaliana (terbinafine 1, 3 and 5 μmol/L, same procedure as Example 1), the “increase in the production of amorpha-4,11-diene” value is “very little increase”. In the experiment with 35S:ADS A. thaliana (treatment with 5 μmol/L), the “accumulation of amorpha-4,11-diene” value is “about 0.004 μg gFW^-1”.
As for `C=C(CC[C@]12O[C@H](C(=O)O)[C@@](O)(C(=O)O)[C@](C(=O)O)(O1)[C@H](OC(=O)/C=C/[C@@H](C)C[C@@H](C)CC)[C@H]2O)[C@@H](OC(C)=O)[C@H](C)Cc1ccccc1` [squalestatin], the Rubber dry weight with Taraxacum koksaghyz (10 μmol/L in 0.1% DMSO, 50 mL sprayed once a day for four days, latex from roots on day 5, average of two individuals) is recorded as 4.2 mg. Moreover, the “increase in amount of natural rubber recovered versus plants not treated with squalestatin” value in the experiment on Taraxacum koksaghyz (10 μmol/L, sprayed once a day for four days) is 2.5 times. For the same molecule, the “amount of amorpha-4,11-diene inside Arabidopsis thaliana plants” value with 35S:ADS A. thaliana (treatment with 3 μmol/L or more of squalestatin, seven-day shake culture, FIG. 2) is “increase”.
